{
  "source": "patent US20230150974A1",
  "about": "(Foghorn Therapeutics Inc., priority 2020, published 2023)",
  "key": {"[1]": {"molecular_target": "T1, HiBiT-BRM (Homo sapiens, UniProt P51531)", "T1 construct": "expressed in transfected cells", "T1 sequence (P51531 whole entry)": "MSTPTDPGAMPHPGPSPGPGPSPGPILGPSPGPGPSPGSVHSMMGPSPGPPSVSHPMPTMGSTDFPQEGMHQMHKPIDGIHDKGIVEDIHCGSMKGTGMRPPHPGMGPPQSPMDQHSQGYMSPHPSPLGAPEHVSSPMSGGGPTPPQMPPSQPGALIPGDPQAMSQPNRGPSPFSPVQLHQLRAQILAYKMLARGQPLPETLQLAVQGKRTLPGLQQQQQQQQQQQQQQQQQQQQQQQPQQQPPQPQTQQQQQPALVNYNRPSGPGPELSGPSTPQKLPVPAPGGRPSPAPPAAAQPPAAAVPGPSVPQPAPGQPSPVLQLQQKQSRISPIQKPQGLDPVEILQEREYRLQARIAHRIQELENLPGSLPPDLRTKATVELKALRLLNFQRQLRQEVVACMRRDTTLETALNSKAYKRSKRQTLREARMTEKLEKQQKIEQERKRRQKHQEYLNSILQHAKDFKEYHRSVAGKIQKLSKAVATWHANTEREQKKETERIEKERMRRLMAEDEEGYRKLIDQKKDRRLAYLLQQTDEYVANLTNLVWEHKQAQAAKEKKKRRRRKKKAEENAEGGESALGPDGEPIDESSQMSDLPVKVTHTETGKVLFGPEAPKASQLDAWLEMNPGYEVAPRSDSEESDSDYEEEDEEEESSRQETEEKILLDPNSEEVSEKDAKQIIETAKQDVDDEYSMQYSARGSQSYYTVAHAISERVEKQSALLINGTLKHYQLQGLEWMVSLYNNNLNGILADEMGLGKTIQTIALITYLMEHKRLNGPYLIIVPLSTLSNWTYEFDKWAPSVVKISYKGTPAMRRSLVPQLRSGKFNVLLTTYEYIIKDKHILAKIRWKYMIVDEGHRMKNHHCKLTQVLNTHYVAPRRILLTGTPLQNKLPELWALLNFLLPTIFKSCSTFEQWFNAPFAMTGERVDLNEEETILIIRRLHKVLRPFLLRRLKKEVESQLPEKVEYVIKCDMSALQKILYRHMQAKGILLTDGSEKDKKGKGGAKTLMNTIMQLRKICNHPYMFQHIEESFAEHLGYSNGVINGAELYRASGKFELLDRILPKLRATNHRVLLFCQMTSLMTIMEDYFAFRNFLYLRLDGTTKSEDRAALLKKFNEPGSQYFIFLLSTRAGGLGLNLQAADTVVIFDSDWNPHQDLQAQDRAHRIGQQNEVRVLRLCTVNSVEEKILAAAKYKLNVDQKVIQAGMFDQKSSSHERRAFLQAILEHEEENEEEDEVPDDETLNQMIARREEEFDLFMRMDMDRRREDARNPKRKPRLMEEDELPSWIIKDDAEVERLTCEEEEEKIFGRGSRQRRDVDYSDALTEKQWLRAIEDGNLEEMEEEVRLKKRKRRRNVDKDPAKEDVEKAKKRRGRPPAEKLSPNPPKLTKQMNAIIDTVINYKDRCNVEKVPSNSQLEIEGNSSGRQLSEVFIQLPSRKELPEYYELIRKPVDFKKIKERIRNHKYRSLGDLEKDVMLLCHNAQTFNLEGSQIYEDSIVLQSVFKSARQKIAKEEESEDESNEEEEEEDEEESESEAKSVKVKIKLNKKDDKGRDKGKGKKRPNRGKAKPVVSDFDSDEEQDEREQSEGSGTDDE", "test": "HiBiT-BRM cell-based degradation assay (Nano-Glo HiBiT Lytic Detection)", "procedure": "(§1) Procedure: A stable HeLa cell line expressing HiBiT-BRM was generated. On day 0, 5000 cells were seeded in 40 μL of media into each well of 384-well cell culture plates. […] Subsequently plates were incubated for 24 h in a standard tissue culture incubator and equilibrated at room temperature for 15 minutes. Nano-Glo HiBiT Lytic Detection System (Promega N3050) reagent was freshly prepared and 20 ul was added to each well. Upon addition of this LgBit-containing reagent, the HiBiT and LgBiT proteins associate to form the luminescent NanoBiT luciferase. The plates were shaken for 10 minutes at room temperature and the bioluminescence read using an EnVision plate reader (PerkinElmer).\n(§2) The degradation % was calculated using the following formula: % degradation=100%−100%×(LumSample−LumLC)/(LumHC−LumLC). DMSO treated cells are employed as High Control (HC) and 2 μM of a known BRM/BRG1 degrader standard treated cells are employed as Low Control (LC)."}, "[2]": {"molecular_target": "T2, HiBit-BRG1 (Homo sapiens, UniProt P51532)", "T2 construct": "expressed in transfected cells", "T2 sequence (P51532 whole entry)": "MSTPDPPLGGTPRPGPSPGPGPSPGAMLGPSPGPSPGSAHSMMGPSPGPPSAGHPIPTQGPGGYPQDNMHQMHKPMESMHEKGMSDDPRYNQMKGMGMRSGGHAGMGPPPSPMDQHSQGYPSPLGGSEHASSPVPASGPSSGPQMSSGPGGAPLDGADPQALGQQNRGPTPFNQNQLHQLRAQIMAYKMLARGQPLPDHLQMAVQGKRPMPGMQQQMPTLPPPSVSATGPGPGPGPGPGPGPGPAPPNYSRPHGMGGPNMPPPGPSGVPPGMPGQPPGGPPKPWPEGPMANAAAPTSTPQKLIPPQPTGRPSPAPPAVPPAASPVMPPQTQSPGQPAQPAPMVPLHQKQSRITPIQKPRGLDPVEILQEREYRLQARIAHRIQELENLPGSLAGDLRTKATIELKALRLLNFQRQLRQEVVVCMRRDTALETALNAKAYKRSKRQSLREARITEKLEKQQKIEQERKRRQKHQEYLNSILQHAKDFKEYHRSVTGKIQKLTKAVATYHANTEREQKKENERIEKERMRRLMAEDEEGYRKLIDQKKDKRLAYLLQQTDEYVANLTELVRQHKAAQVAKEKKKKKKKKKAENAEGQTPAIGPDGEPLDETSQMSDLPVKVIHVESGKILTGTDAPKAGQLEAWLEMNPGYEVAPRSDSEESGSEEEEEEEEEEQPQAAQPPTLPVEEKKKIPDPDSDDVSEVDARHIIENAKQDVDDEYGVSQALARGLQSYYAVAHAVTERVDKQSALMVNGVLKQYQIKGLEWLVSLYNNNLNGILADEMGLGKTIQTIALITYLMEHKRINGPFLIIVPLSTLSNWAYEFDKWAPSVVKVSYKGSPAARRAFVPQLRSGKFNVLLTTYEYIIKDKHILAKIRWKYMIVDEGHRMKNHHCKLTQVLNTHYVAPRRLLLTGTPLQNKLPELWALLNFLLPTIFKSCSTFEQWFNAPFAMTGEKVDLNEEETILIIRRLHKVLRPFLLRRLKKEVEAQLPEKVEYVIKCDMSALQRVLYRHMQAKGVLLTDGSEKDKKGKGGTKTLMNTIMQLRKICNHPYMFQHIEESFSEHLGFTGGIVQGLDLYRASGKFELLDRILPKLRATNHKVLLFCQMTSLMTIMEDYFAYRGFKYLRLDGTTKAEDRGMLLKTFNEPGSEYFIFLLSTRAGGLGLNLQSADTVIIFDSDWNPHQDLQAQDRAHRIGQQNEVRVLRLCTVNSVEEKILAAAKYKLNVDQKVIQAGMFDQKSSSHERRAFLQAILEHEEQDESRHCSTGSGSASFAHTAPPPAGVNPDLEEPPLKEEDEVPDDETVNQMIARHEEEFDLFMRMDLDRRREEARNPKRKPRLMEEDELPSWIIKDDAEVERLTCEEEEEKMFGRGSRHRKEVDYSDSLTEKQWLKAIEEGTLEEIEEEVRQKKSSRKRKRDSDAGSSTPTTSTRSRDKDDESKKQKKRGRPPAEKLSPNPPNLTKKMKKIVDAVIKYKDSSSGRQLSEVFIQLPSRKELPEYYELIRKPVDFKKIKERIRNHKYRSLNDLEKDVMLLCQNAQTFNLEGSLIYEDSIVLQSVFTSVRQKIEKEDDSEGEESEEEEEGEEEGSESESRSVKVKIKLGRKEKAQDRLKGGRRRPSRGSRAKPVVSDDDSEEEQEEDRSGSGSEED", "test": "HiBit-BRG1 cell-based degradation assay (Nano-Glo HiBiT Lytic Detection)", "procedure": "as §1\nFor measurement of BRG1 degradation, a stable HeLa cell line expressing HiBit-BRG1 and LgBit was generated. The same protocol as above was then followed.\nas §2"}, "[3]": {"conditions": "HeLa cells expressing HiBiT-BRM, 24 h"}, "[4]": {"conditions": "HeLa cells expressing HiBiT-BRM, 24 h; read-out: BRM HiBit Degradation IC50"}, "[5]": {"conditions": "HeLa cells expressing HiBit-BRG1 and LgBit, 24 h; read-out: BRG1 HiBit Degradation IC50"}, "[6]": {"conditions": "HeLa cells expressing HiBit-BRG1 and LgBit, 24 h; read-out: BRG1 HiBit Degradation Maximum (%)"}},
  "note": "Like-named read-outs stand apart in the source and are kept apart here.",
  "data": [
    {"smiles": "Nc1nnc(-c2ccccc2O)cc1OCCc1ccc(CNC(=O)NCCCOc2cccc3c2C(=O)N(C2CCC(=O)NC2=O)C3=O)cc1", "note": "(centres unmarked) [Compound 8, 1-(4-(2-((3-amino-6-(2-hydroxyphenyl)pyridazin-4-yl)oxy)ethyl)benzyl)-3-(3-((2-(2,6-dioxopiperidin-3-yl)-1,3-dioxoisoindolin-4-yl)oxy)propyl)urea]", "values": [
      {"measurement": "BRM HiBit Degradation Maximum (%)", "setting": "[1]; [3]", "result": "B (“B” indicates maximum degradation ≥50%)"},
      {"measurement": "DC50", "setting": "[1]; read-out: BRM HiBit Degradation IC50; HeLa cells expressing HiBiT-BRM, 24 h", "result": "> 1", "unit": "µM"},
      {"measurement": "DC50", "setting": "[2]; read-out: BRG1 HiBit Degradation IC50; HeLa cells expressing HiBit-BRG1 and LgBit, 24 h", "result": "> 1", "unit": "µM"}
    ]},
    {"smiles": "Nc1nnc(-c2ccccc2O)cc1OCCc1ccc(CNCCCCCOc2cccc3c2C(=O)N(C2CCC(=O)NC2=O)C3=O)cc1", "note": "(centres unmarked) [Compound 9, 4-[[5-([[4-(2-[[3-amino-6-(2-hydroxyphenyl)pyridazin-4-yl]oxy]ethyl)phenyl]methyl]amino)pentyl]oxy]-2-(2,6-dioxopiperidin-3-yl)isoindole-1,3-dione]", "values": [
      {"measurement": "BRM HiBit Degradation Maximum (%)", "setting": "[1]; [3]", "result": "A (“A” indicates maximum degradation ≥75%)"},
      {"measurement": "DC50", "setting": "[1]; [4]", "result": "> 0.1", "unit": "µM"},
      {"measurement": "DC50", "setting": "[2]; [5]", "result": "> 1", "unit": "µM"}
    ]},
    {"smiles": "CN(Cc1ccc(CCOc2cc(-c3ccccc3O)nnc2N)cc1)C(=O)CCCCOc1cccc2c1C(=O)N(C1CCC(=O)NC1=O)C2=O", "note": "(centres unmarked) [Compound 10, N-(4-(2-((3-amino-6-(2-hydroxyphenyl)pyridazin-4-yl)oxy)ethyl)benzyl)-5-((2-(2,6-dioxopiperidin-3-yl)-1,3-dioxoisoindolin-4-yl)oxy)-N-methylpentanamide]", "values": [
      {"measurement": "BRM HiBit Degradation Maximum (%)", "setting": "[1]; [3]", "result": "C (“C” indicates maximum degradation <50%)"},
      {"measurement": "DC50", "setting": "[1]; [4]", "result": "> 1", "unit": "µM"},
      {"measurement": "DC50", "setting": "[2]; [5]", "result": "> 1", "unit": "µM"},
      {"measurement": "Dmax", "setting": "[2]; [6]", "result": "< 50", "unit": "%"}
    ]},
    {"smiles": "Nc1nnc(-c2ccccc2O)cc1OCCc1ccc(C(=O)NCCCCCCCCCCC(=O)NCc2ccc(S(=O)(=O)Nc3cccc4c(Cl)c[nH]c34)cc2)cc1", "note": "[Compound 11, 11-[[4-(2-[[3-amino-6-(2-hydroxyphenyl)pyridazin-4-yl]oxy]ethyl)phenyl]formamido]-N-([4-[(3-chloro-1H-indol-7-yl)sulfamoyl]phenyl]methyl)undecanamide]", "values": [
      {"measurement": "BRM HiBit Degradation Maximum (%)", "setting": "[1]; [3]", "result": "C (“C” indicates maximum degradation <50%)"},
      {"measurement": "DC50", "setting": "[1]; [4]", "result": "> 1", "unit": "µM"},
      {"measurement": "DC50", "setting": "[2]; [5]", "result": "> 1", "unit": "µM"},
      {"measurement": "Dmax", "setting": "[2]; [6]", "result": "< 50", "unit": "%"}
    ]},
    {"smiles": "Nc1nnc(-c2ccccc2O)cc1OCCc1ccc(C(=O)NCCCCCCCCCC(=O)NCc2ccc(S(=O)(=O)Nc3cccc4c(Cl)c[nH]c34)cc2)cc1", "note": "[Compound 12, 10-[[4-(2-[[3-amino-6-(2-hydroxyphenyl)pyridazin-4-yl]oxy]ethyl)phenyl]formamido]-N-([4-[(3-chloro-1H-indol-7-yl)sulfamoyl]phenyl]methyl)decanamide]", "values": [
      {"measurement": "BRM HiBit Degradation Maximum (%)", "setting": "[1]; [3]", "result": "C (“C” indicates maximum degradation <50%)"},
      {"measurement": "DC50", "setting": "[1]; [4]", "result": "> 1", "unit": "µM"},
      {"measurement": "DC50", "setting": "[2]; [5]", "result": "> 1", "unit": "µM"},
      {"measurement": "Dmax", "setting": "[2]; [6]", "result": "< 50", "unit": "%"}
    ]},
    {"smiles": "Nc1nnc(-c2ccccc2O)cc1OCCc1ccc(C(=O)NCCCCCCC(=O)NCc2ccc(S(=O)(=O)Nc3cccc4c(Cl)c[nH]c34)cc2)cc1", "note": "[Compound 13, 7-[[4-(2-[[3-amino-6-(2-hydroxyphenyl)pyridazin-4-yl]oxy]ethyl)phenyl]formamido]-N-([4-[(3-chloro-1H-indol-7-yl)sulfamoyl]phenyl]methyl)heptanamide]", "values": [
      {"measurement": "BRM HiBit Degradation Maximum (%)", "setting": "[1]; [3]", "result": "C (“C” indicates maximum degradation <50%)"},
      {"measurement": "DC50", "setting": "[1]; [4]", "result": "> 1", "unit": "µM"},
      {"measurement": "DC50", "setting": "[2]; [5]", "result": "> 1", "unit": "µM"},
      {"measurement": "Dmax", "setting": "[2]; [6]", "result": "< 50", "unit": "%"}
    ]},
    {"smiles": "Nc1nnc(-c2ccccc2O)cc1OCCc1ccc(C(=O)NCCCCCC(=O)NCc2ccc(S(=O)(=O)Nc3cccc4c(Cl)c[nH]c34)cc2)cc1", "note": "[Compound 14, 6-[[4-(2-[[3-amino-6-(2-hydroxyphenyl)pyridazin-4-yl]oxy]ethyl)phenyl]formamido]-N-([4-[(3-chloro-1H-indol-7-yl)sulfamoyl]phenyl]methyl)hexanamide]", "values": [
      {"measurement": "BRM HiBit Degradation Maximum (%)", "setting": "[1]; [3]", "result": "C (“C” indicates maximum degradation <50%)"},
      {"measurement": "DC50", "setting": "[1]; [4]", "result": "> 1", "unit": "µM"},
      {"measurement": "DC50", "setting": "[2]; [5]", "result": "> 1", "unit": "µM"},
      {"measurement": "Dmax", "setting": "[2]; [6]", "result": "< 50", "unit": "%"}
    ]},
    {"smiles": "Nc1nnc(-c2ccccc2O)cc1OCCc1ccc(C(=O)NCCCCC(=O)NCc2ccc(S(=O)(=O)Nc3cccc4c(Cl)c[nH]c34)cc2)cc1", "note": "[Compound 15, 4-(2-((3-amino-6-(2-hydroxyphenyl)pyridazin-4-yl)oxy)ethyl)-N-(5-((4-(N-(3-chloro-1H-indol-7-yl)sulfamoyl)benzyl)amino)-5-oxopentyl)benzamide]", "values": [
      {"measurement": "BRM HiBit Degradation Maximum (%)", "setting": "[1]; [3]", "result": "C (“C” indicates maximum degradation <50%)"},
      {"measurement": "DC50", "setting": "[1]; [4]", "result": "> 1", "unit": "µM"},
      {"measurement": "DC50", "setting": "[2]; [5]", "result": "> 1", "unit": "µM"},
      {"measurement": "Dmax", "setting": "[2]; [6]", "result": "< 50", "unit": "%"}
    ]},
    {"smiles": "Nc1nnc(-c2ccccc2O)cc1OCCc1ccc(C(=O)NCCCC(=O)NCc2ccc(S(=O)(=O)Nc3cccc4c(Cl)c[nH]c34)cc2)cc1", "note": "[Compound 16, 4-[[4-(2-[[3-amino-6-(2-hydroxyphenyl)pyridazin-4-yl]oxy]ethyl)phenyl]formamido]-N-([4-[(3-chloro-1H-indol-7-yl)sulfamoyl]phenyl]methyl)butanamide]", "values": [
      {"measurement": "BRM HiBit Degradation Maximum (%)", "setting": "[1]; [3]", "result": "C (“C” indicates maximum degradation <50%)"},
      {"measurement": "DC50", "setting": "[1]; [4]", "result": "> 1", "unit": "µM"},
      {"measurement": "DC50", "setting": "[2]; [5]", "result": "> 1", "unit": "µM"},
      {"measurement": "Dmax", "setting": "[2]; [6]", "result": "< 50", "unit": "%"}
    ]},
    {"smiles": "Nc1nnc(-c2ccccc2O)cc1OCCc1ccc(C(=O)NCCC(=O)NCc2ccc(S(=O)(=O)Nc3cccc4c(Cl)c[nH]c34)cc2)cc1", "note": "[Compound 17, 3-[[4-(2-[[3-amino-6-(2-hydroxyphenyl)pyridazin-4-yl]oxy]ethyl)phenyl]formamido]-N-([4-[(3-chloro-1H-indol-7-yl)sulfamoyl]phenyl]methyl)propanamide]", "values": [
      {"measurement": "BRM HiBit Degradation Maximum (%)", "setting": "[1]; [3]", "result": "C (“C” indicates maximum degradation <50%)"},
      {"measurement": "DC50", "setting": "[1]; [4]", "result": "> 1", "unit": "µM"},
      {"measurement": "DC50", "setting": "[2]; [5]", "result": "> 1", "unit": "µM"},
      {"measurement": "Dmax", "setting": "[2]; [6]", "result": "< 50", "unit": "%"}
    ]},
    {"smiles": "Nc1nnc(-c2ccccc2O)cc1OCCc1ccc(C(=O)NCC(=O)NCc2ccc(S(=O)(=O)Nc3cccc4c(Cl)c[nH]c34)cc2)cc1", "note": "[Compound 18, 2-[[4-(2-[[3-amino-6-(2-hydroxyphenyl)pyridazin-4-yl]oxy]ethyl)phenyl]formamido]-N-([4-[(3-chloro-1H-indol-7-yl)sulfamoyl]phenyl]methyl)acetamide]", "values": [
      {"measurement": "BRM HiBit Degradation Maximum (%)", "setting": "[1]; [3]", "result": "C (“C” indicates maximum degradation <50%)"},
      {"measurement": "DC50", "setting": "[1]; [4]", "result": "> 1", "unit": "µM"},
      {"measurement": "DC50", "setting": "[2]; [5]", "result": "> 1", "unit": "µM"},
      {"measurement": "Dmax", "setting": "[2]; [6]", "result": "< 50", "unit": "%"}
    ]},
    {"smiles": "Nc1nnc(-c2ccccc2O)cc1OCCc1ccc(CNC(=O)C2CCN(CCOc3ccc4c(c3)C(=O)N(C3CCC(=O)NC3=O)C4=O)CC2)cc1", "note": "(centres unmarked) [Compound 19, N-(4-(2-((3-amino-6-(2-hydroxyphenyl)pyridazin-4-yl)oxy)ethyl)benzyl)-1-(2-((2-(2,6-dioxopiperidin-3-yl)-1,3-dioxoisoindolin-5-yl)oxy)ethyl)piperidine-4-carboxamide]", "values": [
      {"measurement": "BRM HiBit Degradation Maximum (%)", "setting": "[1]; [3]", "result": "C (“C” indicates maximum degradation <50%)"},
      {"measurement": "DC50", "setting": "[1]; [4]", "result": "> 1", "unit": "µM"},
      {"measurement": "DC50", "setting": "[2]; [5]", "result": "> 1", "unit": "µM"},
      {"measurement": "Dmax", "setting": "[2]; [6]", "result": "< 50", "unit": "%"}
    ]},
    {"smiles": "Cc1ncsc1-c1ccc(CNC(=O)[C@@H]2C[C@@H](O)CN2C(=O)[C@@H](NC(=O)CCCCCCCCCNC(=O)c2ccc(CCN(C)c3cc(-c4ccccc4O)nnc3N)cc2)C(C)(C)C)cc1", "note": "[Compound 20, (2S,4R)-1-[(2S)-2-(10-[[4-(2-[[3-amino-6-(2-hydroxyphenyl)pyridazin-4-yl](methyl)amino]ethyl)phenyl]formamido]decanamido)-3,3-dimethylbutanoyl]-4-hydroxy-N-[[4-(4-methyl-1,3-thiazol-5-yl)phenyl]methyl]pyrrolidine-2-carboxamide]", "values": [
      {"measurement": "BRM HiBit Degradation Maximum (%)", "setting": "[1]; [3]", "result": "A (“A” indicates maximum degradation ≥75%)"},
      {"measurement": "DC50", "setting": "[1]; [4]", "result": "> 0.01", "unit": "µM"},
      {"measurement": "DC50", "setting": "[2]; [5]", "result": "> 0.1", "unit": "µM"},
      {"measurement": "Dmax", "setting": "[2]; [6]", "result": "> 75", "unit": "%"}
    ]}
  ]
}
